The values below come from ChEMBL document CHEMBL1201862, “PubChem BioAssay data set” (2004).

The structures appear in SMILES notation.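 These data come from cells grown in 96-well plates and exposed to compound for 48 hours at five concentrations. GI50: concentration for 50% inhibition of growth.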 Activity calls are given as the source filed them. Rule as the data show it: active = GI50 up to about 1.1 µM and inactive = higher. Bounds are passed on as bounds.

Some test systems named below: SNB-19; UACC-257; NCI-H522; OVCAR-3; IGROV-1; T47D; NCI/ADR-RES; COLO 205; MDA-N; HCT-116; OVCAR-4; NCI-H23; SN12C; KM12; CCRF-CEM; ACHN; TK-10; OVCAR-8; 786-0.
Test in all cases: DTP human tumour cell line panel, 48 h

For the molecule `COc1ccc2c(c1)O[C@@H]1[C@@H](OC3OC(CO)C(O)C(O)C3O)Oc3cc(OC)c(OC)cc3[C@]1(O)C2=O` (some centres not stated), the GI50 with SNB-19, with UACC-257, with NCI-H522, in the assay with OVCAR-3, with IGROV-1 and with T47D was > 100 µM (inactive) throughout. For the same molecule, the GI50 with NCI/ADR-RES, in the assay on COLO 205, in the assay with MDA-N, in the assay with HCT-116, with OVCAR-4 and in the assay on NCI-H23 was > 100 µM (inactive) each time. Moreover, the GI50 with SN12C, in the assay on KM12, with CCRF-CEM, in the assay with ACHN, in the assay on TK-10 and with OVCAR-8 was > 100 µM (inactive) each time. The GI50 in the assay with 786-0 is > 100 µM (inactive).

Regarding `O=C(O)C1C(C(=O)O)C(C(=O)O)C1C(=O)O` (configuration not stated), the GI50 in the assay on SNB-19, with UACC-257, with NCI-H522, with OVCAR-3, in the assay with IGROV-1 and with T47D was > 100 µM (inactive) throughout. Further, the GI50 with NCI/ADR-RES, with COLO 205, with MDA-N, with HCT-116, in the assay with OVCAR-4 and in the assay with NCI-H23 was > 100 µM (inactive) each time. Besides, the GI50 with SN12C, in the assay on KM12, with CCRF-CEM, with ACHN, with TK-10 and in the assay with OVCAR-8 was > 100 µM (inactive) each time. Besides, the GI50 in the assay on 786-0 is > 100 µM (inactive).

Regarding `CN(C)c1ccc(C(=O)NCCCCCCC(=O)NO)cc1`, the GI50 in the assay with SNB-19 is 2 µM (inactive); in the assay with UACC-257, 0.237 µM (active); in the assay on NCI-H522, 0.11 µM (active); with OVCAR-3 it was 0.519 µM (active); with IGROV-1, 0.553 µM (active); in the assay with T47D, 0.216 µM (active). The GI50 with NCI/ADR-RES was 0.14 µM (active); in the assay with COLO 205, 0.33 µM (active); with MDA-N, 0.233 µM (active); with HCT-116, 0.169 µM (active); with OVCAR-4 it was 1.64 µM (inactive); in the assay on NCI-H23, 0.562 µM (active). For the same molecule, the GI50 in the assay on SN12C is 0.378 µM (active); in the assay on KM12, 0.684 µM (active); in the assay with CCRF-CEM, 0.238 µM (active); with ACHN, 0.67 µM (active); in the assay with TK-10, 0.33 µM (active); in the assay on OVCAR-8, 0.153 µM (active). In addition, the GI50 with 786-0 was 0.973 µM (active).

Take `NNc1ccccc1Cl`: the GI50 in the assay on SNB-19 is > 100 µM (inactive); with UACC-257, > 100 µM (inactive); in the assay with NCI-H522, > 100 µM (inactive); in the assay with OVCAR-3, 38.7 µM (inactive); in the assay with IGROV-1 it was > 100 µM (inactive); in the assay on T47D, 59.8 µM (inactive). In addition, the GI50 with NCI/ADR-RES was > 100 µM (inactive); with COLO 205, 29 µM (inactive); in the assay with MDA-N, > 100 µM (inactive); with HCT-116, > 100 µM (inactive); in the assay with OVCAR-4 it was 91.2 µM (inactive); in the assay on NCI-H23 it was > 100 µM (inactive). The GI50 in the assay with SN12C is > 100 µM (inactive); with KM12, > 100 µM (inactive); with CCRF-CEM it was 43.1 µM (inactive); with ACHN it was > 100 µM (inactive); in the assay on TK-10 it was > 100 µM (inactive); in the assay on OVCAR-8, > 100 µM (inactive). For the same molecule, the GI50 in the assay with 786-0 was > 100 µM (inactive).

Turning to `OCCCCCNc1nc(O)c2[nH]cnc2n1`, the GI50 in the assay with SNB-19, in the assay on UACC-257, in the assay on NCI-H522, in the assay on OVCAR-3, in the assay on IGROV-1 and in the assay on T47D was > 100 µM (inactive) each time. In addition, the GI50 in the assay with NCI/ADR-RES, in the assay on COLO 205, in the assay with MDA-N, in the assay on HCT-116, with OVCAR-4 and in the assay on NCI-H23 was > 100 µM (inactive) each time. The GI50 with SN12C, in the assay on KM12, in the assay with CCRF-CEM, in the assay on ACHN, with TK-10 and with OVCAR-8 was > 100 µM (inactive) each time. In addition, the GI50 in the assay on 786-0 was > 100 µM (inactive).

`COc1ccc(/N=C2\C(=S)N(c3ccc(OC)cc3)/C(=N/S(=O)(=O)c3ccccc3)N2c2ccccc2)cc1`: the GI50 in the assay with SNB-19 was 36.9 µM (inactive); in the assay on UACC-257 it was 13 µM (inactive); with NCI-H522, 1.64 µM (inactive); in the assay with OVCAR-3 it was 5.5 µM (inactive); in the assay with IGROV-1, 12.9 µM (inactive); in the assay with T47D, 1.09 µM (active). Further, the GI50 with NCI/ADR-RES was 23.6 µM (inactive); in the assay with COLO 205 it was 8.81 µM (inactive); in the assay with MDA-N, 3.93 µM (inactive); with HCT-116 it was 6.64 µM (inactive); in the assay on OVCAR-4 it was 9.25 µM (inactive); in the assay on NCI-H23 it was 10.2 µM (inactive). The GI50 is 15.1 µM (inactive) in the assay on SN12C; 13.2 µM (inactive) with KM12; 2.59 µM (inactive) in the assay on CCRF-CEM; 8.85 µM (inactive) with ACHN; 14.7 µM (inactive) with TK-10; 3.95 µM (inactive) in the assay on OVCAR-8. Besides, the GI50 in the assay on 786-0 is 7.14 µM (inactive).

On to `O=C(CN1CCN(c2ccccn2)CC1)N1CCCn2c1nc1ccccc1c2=O`, for which the GI50 with SNB-19, with UACC-257, with NCI-H522, in the assay on OVCAR-3, in the assay with IGROV-1 and in the assay with T47D was > 100 µM (inactive) in each case. The GI50 in the assay on NCI/ADR-RES, in the assay on COLO 205, with MDA-N, with HCT-116, in the assay with OVCAR-4 and with NCI-H23 was > 100 µM (inactive) throughout. In addition, the GI50 with SN12C, with KM12, with CCRF-CEM, with ACHN, in the assay with TK-10 and with OVCAR-8 was > 100 µM (inactive) in each case. In addition, the GI50 with 786-0 was > 100 µM (inactive).

Consider `O=C1/C(=C\c2ccco2)Oc2ccccc21`, for which the GI50 was > 100 µM (inactive) in the assay on SNB-19; > 100 µM (inactive) in the assay on UACC-257; > 100 µM (inactive) with NCI-H522; 98.9 µM (inactive) in the assay with OVCAR-3; 99.1 µM (inactive) in the assay with IGROV-1; 72.3 µM (inactive) in the assay with T47D. Also, the GI50 in the assay with NCI/ADR-RES, in the assay on COLO 205, in the assay on MDA-N, in the assay on HCT-116, with OVCAR-4 and in the assay with NCI-H23 was > 100 µM (inactive) throughout. For the same molecule, the GI50 in the assay with SN12C, in the assay with KM12, in the assay on CCRF-CEM, in the assay with ACHN, in the assay with TK-10 and with OVCAR-8 was > 100 µM (inactive) each time. In addition, the GI50 in the assay with 786-0 was > 100 µM (inactive).

Usually GI50 stands for the concentration that inhibits growth by half.
